From ChEMBL document CHEMBL5233262, “Anti-inflammatory activity of naturally occuring diarylheptanoids - A review” (Bioorg Med Chem, 2021)
Converted amounts (≈) assume the structure as drawn.

Key:
[1] = tested on: RAW264.7; assay: Antiinflammatory activity in mouse RAW264.7 cells assessed as inhibition of KLA-induced TNFalpha expression at 0.06 mg/ml and measured after 24 hrs by ELISA; assay type: functional
[2] = tested on: J774.1; assay: Cytotoxicity in mouse J774.1 cells assessed as reduction in cell viability at 100 microg/ml; assay type: toxicity, cell-based; conditions: at 100 µg/mL
[3] = tested on: J774.1; assay: Antiinflammatory activity in mouse J774.1 cells assessed as inhibition of LPS-induced NO production incubated for 48 hrs by Griess reagent based analysis; assay type: functional, cell-based; conditions: Mus musculus, J774.1, 48 h
[4] = tested on: J774.1; assay: Antiinflammatory activity in mouse J774.1 cells assessed as inhibition of LPS-induced NO production at 100 microg/ml; assay type: functional
[5] = tested on: Rattus norvegicus; assay: Antiinflammatory activity in rat model of carrageenan-induced hind paw edema assessed as reduction in paw thickness at 100 mg/kg,ip 30mins before carrageenin exposure and measured after 3 hrs; assay type: functional; parameters: scale not given: the % may be the effect or the level left
[6] = tested on: Hepatocyte; assay: Hepatoprotective activity against CCL4-induced rat hepatocyte toxicity assessed as decrease in IL-1beta level at 1 uM preincubated for 30 mins followed by CCL4 addition and measured after 180 mins by ELISA; assay type: functional; parameters: scale not given: the % may be the effect or the level left; conditions: time 210 min
[7] = tested on: Hepatocyte; assay: Hepatoprotective activity against CCL4-induced rat hepatocyte toxicity assessed as decrease in TNF-alpha level at 1 uM preincubated for 30 mins followed by CCL4 addition and measured after 180 mins by ELISA; assay type: functional; parameters: scale not given: the % may be the effect or the level left; conditions: time 210 min
[8] = tested on: Hepatocyte; assay: Hepatoprotective activity against CCL4-induced rat hepatocyte toxicity assessed as decrease in TBARS level by measuring MDA formation at 1 uM preincubated for 30 mins followed by CCL4 addition and measured after 180 mins by TBARS method; assay type: functional; parameters: scale not given: the % may be the effect or the level left; conditions: time 210 min
[9] = tested on: Hepatocyte; assay: Hepatoprotective activity against CCL4-induced rat hepatocyte toxicity assessed as decrease in ALT level at 1 uM preincubated for 30 mins followed by CCL4 addition and measured after 180 mins by colorimetric method; assay type: functional; parameters: scale not given: the % may be the effect or the level left; conditions: time 210 min
[10] = tested on: RAW264.7; assay: Antiinflammatory activity in mouse RAW264.7 cells assessed as inhibition of LPS-induced NO production incubated for 24 hrs by Griess reagent based analysis; assay type: functional, cell-based; conditions: RAW264.7, 24 h
[11] = tested on: RAW264.7; assay: Antiinflammatory activity in mouse RAW264.7 cells assessed as inhibition of LPS-induced NF-kappaB expression preincubated for 1 hr followed by LPS stimulation and measured after 18 hrs by qPCR analysis; assay type: functional, cell-based
[12] = tested on: RAW264.7; assay: Antiinflammatory activity in mouse RAW264.7 cells assessed as inhibition of LPS-induced TNFalpha production preincubated for 1 hr followed by LPS stimulation and measured after 18 hrs by immunoassay; assay type: functional, cell-based
[13] = tested on: Rattus norvegicus; assay: Antiinflammatory activity in Wistar rat model of carrageenan-induced paw edema assessed as reduction in paw thickness at 10 mg/kg,po and measured after 5 hrs; assay type: functional; parameters: scale not given: the % may be the effect or the level left
[14] = tested on: Mus musculus; assay: Antiinflammatory activity in TPA-induced ear edema ICR mouse model assessed as inhibition of ear inflammation at 1 ug, TOP for 30 mins followed by TPA addition and measured after 6 hrs; assay type: functional; conditions: dose 1 µg, time 390 min, 6.5 h
[15] = tested on: Rattus norvegicus; assay: Antiinflammatory activity in rat model of ethyl phenylpropiolate-induced ear edema assessed as reduction in ear thickness administered topically and measured after 30 mins; assay type: functional; conditions: 0.5 h
[16] = tested on: BV-2; assay: Antiinflammatory activity in mouse BV-2 cells assessed as inhibition of LPS-induced NO production at 10 uM preincubated for 1 hrs followed by LPS stimulation and measured after 24 hrs by Griess assay; assay type: functional; conditions: time 25 hrs
[17] = tested on: RAW264.7; assay: Antiinflammatory activity in mouse RAW264.7 cells assessed as inhibition of LPS-induced NO production; assay type: functional, cell-based
[18] = tested on: Zingiber officinale; assay: Inhibition of prostaglandin biosynthesis in ginger; assay type: functional, organism-based
[19] = tested on: RAW264.7; assay: Antiinflammatory activity in mouse RAW264.7 cells assessed as inhibition of LPS-induced NO production for 24 hrs by Griess assay; assay type: functional, cell-based; conditions: RAW264.7, 24 h
[20] = tested on: Rattus norvegicus; assay: Antiinflammatory activity in rat model of carrageenan-induced paw edema assessed as reduction in paw thickness at 10 mg/kg,ip and measured after 4 hrs; assay type: functional; parameters: scale not given: the % may be the effect or the level left
[21] = tested on: RAW264.7; assay: Antiinflammatory activity against mouse RAW264.7 cells assessed as inhibition of IFN-gamma and LPS-induced COX2 production preincubated for 2 hrs followed by IFN-gamma and LPS stimulation and measured after 16 hrs by spectrophotometric analysis; assay type: functional, cell-based
[22] = tested on: Mus musculus; assay: Antiinflammatory activity in ICR mouse model of TPA-induced ear edema assessed as inhibition of ear inflammation at 1 mg,TOP for 30 mins followed by TPA addition and measured after 6 hrs; assay type: functional; conditions: time 390 min, 6.5 h
[23] = tested on: RAW264.7; assay: Antiinflammatory activity in mouse RAW264.7 cells assessed as inhibition of LPS-induced IL-1beta production; assay type: functional, cell-based
[24] = tested on: RAW264.7; assay: Antiinflammatory activity in mouse RAW264.7 cells assessed as inhibition of LPS-induced TNF-alpha production; assay type: functional, cell-based
[25] = tested on: RAW264.7; assay: Antiinflammatory activity in mouse RAW264.7 cells assessed as inhibition of LPS-induced IL-6 production; assay type: functional, cell-based
[26] = tested on: RAW264.7; assay: Antiinflammatory activity in mouse RAW264.7 cells assessed as inhibition of LPS-induced TNFalpha production at 10 uM preincubated for 2 hrs followed by LPS stimulation and measured after 24 hrs by ELISA; assay type: functional; conditions: time 26 hrs
[27] = tested on: RAW264.7; assay: Antiinflammatory activity in mouse RAW264.7 cells assessed as inhibition of LPS-induced IL-6 production at 3 uM preincubated for 2 hrs followed by LPS stimulation and measured after 24 hrs by ELISA; assay type: functional; conditions: time 26 hrs
[28] = tested on: RAW264.7; assay: Antiinflammatory activity in mouse RAW264.7 cells assessed as inhibition of LPS-induced TNFalpha production at 100 uM preincubated for 2 hrs followed by LPS stimulation and measured after 24 hrs by ELISA; assay type: functional; conditions: time 26 hrs
[29] = tested on: RAW264.7; assay: Antiinflammatory activity in mouse RAW264.7 cells assessed as inhibition of LPS-induced NO production at 3 uM preincubated for 2 hrs followed by LPS stimulation and measured after 24 hrs by Griess method; assay type: functional; conditions: time 26 hrs
[30] = tested on: RAW264.7; assay: Antiinflammatory activity in mouse RAW264.7 cells assessed as inhibition of LPS-induced NO production at 30 uM preincubated for 2 hrs followed by LPS stimulation and measured after 24 hrs by Griess method; assay type: functional; conditions: time 26 hrs
[31] = tested on: RAW264.7; assay: Antiinflammatory activity in mouse RAW264.7 cells assessed as inhibition of LPS-induced NO production at 100 uM preincubated for 2 hrs followed by LPS stimulation and measured after 24 hrs by Griess method; assay type: functional; conditions: time 26 hrs
[32] = tested on: RAW264.7; assay: Antiinflammatory activity in mouse RAW264.7 cells assessed as inhibition of LPS-induced TNFalpha production at 30 uM preincubated for 2 hrs followed by LPS stimulation and measured after 24 hrs by ELISA; assay type: functional; conditions: time 26 hrs
[33] = tested on: RAW264.7; assay: Antiinflammatory activity in mouse RAW264.7 cells assessed as inhibition of LPS-induced TNFalpha production at 3 uM preincubated for 2 hrs followed by LPS stimulation and measured after 24 hrs by ELISA; assay type: functional; conditions: time 26 hrs
[34] = tested on: RAW264.7; assay: Antiinflammatory activity in mouse RAW264.7 cells assessed as inhibition of LPS-induced IL-6 production at 100 uM preincubated for 2 hrs followed by LPS stimulation and measured after 24 hrs by ELISA; assay type: functional; conditions: time 26 hrs
[35] = tested on: RAW264.7; assay: Antiinflammatory activity in mouse RAW264.7 cells assessed as inhibition of LPS-induced IL-6 production at 30 uM preincubated for 2 hrs followed by LPS stimulation and measured after 24 hrs by ELISA; assay type: functional; conditions: time 26 hrs
[36] = tested on: RAW264.7; assay: Antiinflammatory activity in mouse RAW264.7 cells assessed as inhibition of LPS-induced IL-6 production at 10 uM preincubated for 2 hrs followed by LPS stimulation and measured after 24 hrs by ELISA; assay type: functional; conditions: time 26 hrs
[37] = tested on: RAW264.7; assay: Antiinflammatory activity in mouse RAW264.7 cells assessed as inhibition of LPS-induced NO production at 10 uM preincubated for 2 hrs followed by LPS stimulation and measured after 24 hrs by Griess method; assay type: functional; conditions: time 26 hrs

For `O=C(CCc1ccccc1)C[C@@H](O)/C=C/c1ccccc1`, the inhibition at 60 µg/mL [1] was 37%.

`COc1cc(O)c([C@H](/C=C/C[C@@H](O)CCc2ccc(O)cc2)c2ccc(O)cc2)c(O)c1C(=O)/C=C/c1ccc(O)cc1` was tested, and the Activity [2] was 85%, the IC50 [3] was 84 µM and the inhibition at 100 µg/mL [4] was 90%.

With `CC(=O)Oc1ccccc1C(=O)O` [ASPIRIN] the Activity [5] was 80%.

Compound `COc1cc(CCC(=O)CCCCc2ccc(O)c(O)c2)ccc1O` has an Activity [6] of 58.8%, an Activity [7] of 43.8% and an Activity [8] of 60.4%. The Activity [9] was 56.3%.

Compound `COc1c2ccc(c1O)CCCCC(=O)CCc1ccc(O)c(c1)O2` has an IC50 [10] of 18.5 µM, an IC50 [11] of 9.2 µM and an IC50 [12] of 22.9 µM.

`COc1cc(O)c([C@H](/C=C/C[C@@H](O)CCc2ccc(O)cc2)c2ccc(O)cc2)c2oc(-c3ccc(O)cc3)cc(=O)c12` (stereo in doubt; 110) was tested, and the Activity [2] was 85%, the IC50 [3] was 84 µM and the inhibition at 100 µg/mL [4] was 90%.

With `O=C(CCc1ccccc1)C[C@H](O)CCc1ccccc1` the Activity [13] was 6.9% and the ID50 [14] was 2.1 µmol.

`O=C(/C=C/C=C/c1ccccc1)CCc1ccccc1` showed an ID50 [15] of 63 µg and an Activity [5] of 44%.

Work on `Oc1ccc(CC[C@@H](O)C[C@@H](O)CCc2ccc(O)cc2)cc1` yielded an inhibition at 10 µM [16] of 65.2%.

In the case of `COc1ccc2c(c1)c(CC(=O)O)c(C)n2C(=O)c1ccc(Cl)cc1` [INDOMETHACIN], the IC50 [17] is reported as 26.3 µM, the IC50 [18] is reported as 4.9 µM and the IC50 [19] is reported as 32.3 µM. The ID50 [14] was 0.9 µmol, the Activity [20] was 55.2% and the IC50 [21] was 26.2 µg/mL (≈ 73.2 µM). The ID50 [22] was 0.3 mg.

Compound `COc1cc(CC[C@@H](CCCCc2cc(O)c(O)c(O)c2)OC(C)=O)cc(OC)c1O` has an Activity [6] of 63.6%, an Activity [7] of 38.6% and an Activity [8] of 67.1%. It also gave an Activity [9] of 61.1%.

`COc1cc2cc(c1O)-c1cc(ccc1O)CC[C@H](OS(=O)(=O)O)CCCC2` was tested, and the IC50 [23] was 22.9 µM, the IC50 [24] was 20.1 µM and the IC50 [25] was 22.7 µM.

With `COc1cc(CC[C@H](O)C[C@H](O)[C@@H](O)Cc2ccc(O)c(OC)c2)ccc1O` the inhibition at 10 µM [26] was 34%, the inhibition at 3 µM [27] was 43% and the inhibition at 100 µM [28] was 34%. The inhibition at 3 µM [29] was 39%, the inhibition at 30 µM [30] was 39% and the inhibition at 100 µM [31] was 39%. For the same compound, the inhibition at 30 µM [32] was 34%, the inhibition at 3 µM [33] was 34% and the inhibition at 100 µM [34] was 43%. The inhibition at 30 µM [35] was 43%, the inhibition at 10 µM [36] was 43% and the inhibition at 10 µM [37] was 39%.
